Details of series [1]: method as in supplement references [1-55] as printed per drug. The note with it: minimum steady-state blood plasma concentration after multiple dose administration; ref supplement references [1-55] per drug; cited from earlier work.
Series [2] in a line: Short-term stability in spiked pooled human plasma (bench-top, 4 °C, 56 °C).

For `Cn1cnc2c(F)c(Nc3ccc(Br)cc3F)c(C(=O)NOCCO)cc21` [Binimetinib], the “cmin” value in series [1] is recorded as 53.3 ng/mL. Further, in series [2] (validation standard 2xLLOV), the “Short-time stability (1h, 56°C) Accuracy [%]” value is given as 55.9%; the “Short-time stability (24h, 4°C, without daylight) Accuracy [%]” value came out at 105.5%; the “Short-time stability (24h, RT, with daylight) Accuracy [%]” value was 89.3%; the “Short-time stability (24h, RT, without daylight) Accuracy [%]” value is 86.4%. In series [2] (validation standard LLOV), the “Short-time stability (1h, 56°C) Accuracy [%]” value amounted to 68.1%; the “Short-time stability (24h, 4°C, without daylight) Accuracy [%]” value worked out at 117.1%; the “Short-time stability (24h, RT, with daylight) Accuracy [%]” value is reported as 111.6%; the “Short-time stability (24h, RT, without daylight) Accuracy [%]” value turned out to be 106.0%. Moreover, in series [2] (validation standard MOV), the “Short-time stability (1h, 56°C) Accuracy [%]” value was determined as 42.6%; the “Short-time stability (24h, 4°C, without daylight) Accuracy [%]” value came out at 94.8%; the “Short-time stability (24h, RT, with daylight) Accuracy [%]” value was found to be 86.5%; the “Short-time stability (24h, RT, without daylight) Accuracy [%]” value is reported as 89.2%. Also, in series [2] (validation standard ULOV), the “Short-time stability (1h, 56°C) Accuracy [%]” value was determined as 36.7%; the “Short-time stability (24h, 4°C, without daylight) Accuracy [%]” value is listed as 96.8%; the “Short-time stability (24h, RT, with daylight) Accuracy [%]” value amounted to 101.8%; the “Short-time stability (24h, RT, without daylight) Accuracy [%]” value came out at 97.3%.
In the case of `Cc1ccc(NC(=O)c2ccc(CN3CCN(C)CC3)cc2)cc1Nc1nccc(-c2cccnc2)n1` [Imatinib], the “Short-time stability (24h, 4°C, without daylight) Accuracy [%]” value in series [2] (validation standard 2xLLOV) is listed as 105.2%; in series [2] (validation standard LLOV), 81.3%; in series [2] (validation standard MOV), 102.2%; in series [2] (validation standard ULOV), 94.2%. The “Short-time stability (24h, RT, with daylight) Accuracy [%]” value in series [2] (validation standard 2xLLOV) is listed as 86.0%; in series [2] (validation standard LLOV), 83.7%; in series [2] (validation standard MOV), 93.6%; in series [2] (validation standard ULOV), 85.6%. Further, the “Short-time stability (24h, RT, without daylight) Accuracy [%]” value in series [2] (validation standard 2xLLOV) is on record as 82.7%; in series [2] (validation standard LLOV), 83.8%; in series [2] (validation standard MOV) it was 88.6%; in series [2] (validation standard ULOV), 82.9%.
`COc1cc2nccc(Oc3ccc(NC(=O)NC4CC4)c(Cl)c3)c2cc1C(N)=O` [Lenvatinib]: in series [2] (validation standard 2xLLOV), the “Short-time stability (1h, 56°C) Accuracy [%]” value stood at 56.5%; the “Short-time stability (24h, 4°C, without daylight) Accuracy [%]” value is 103.4%; the “Short-time stability (24h, RT, with daylight) Accuracy [%]” value was 96.8%; the “Short-time stability (24h, RT, without daylight) Accuracy [%]” value came out at 94.6%. Besides, in series [2] (validation standard LLOV), the “Short-time stability (1h, 56°C) Accuracy [%]” value was 62.9%; the “Short-time stability (24h, 4°C, without daylight) Accuracy [%]” value came out at 114.0%; the “Short-time stability (24h, RT, with daylight) Accuracy [%]” value is listed as 106.4%; the “Short-time stability (24h, RT, without daylight) Accuracy [%]” value is recorded as 110.0%. Further, in series [2] (validation standard MOV), the “Short-time stability (1h, 56°C) Accuracy [%]” value is reported as 46.6%; the “Short-time stability (24h, 4°C, without daylight) Accuracy [%]” value is given as 95.9%; the “Short-time stability (24h, RT, with daylight) Accuracy [%]” value was found to be 93.9%; the “Short-time stability (24h, RT, without daylight) Accuracy [%]” value amounted to 94.3%. Moreover, in series [2] (validation standard ULOV), the “Short-time stability (1h, 56°C) Accuracy [%]” value is 40.6%; the “Short-time stability (24h, 4°C, without daylight) Accuracy [%]” value is 100.4%; the “Short-time stability (24h, RT, with daylight) Accuracy [%]” value amounted to 102.7%; the “Short-time stability (24h, RT, without daylight) Accuracy [%]” value was 97.9%.
For `CO[C@@H]1[C@H](N(C)C(=O)c2ccccc2)C[C@H]2O[C@]1(C)n1c3ccccc3c3c4c(c5c6ccccc6n2c5c31)C(=O)NC4` [Midostaurin], in series [2] (validation standard 2xLLOV), the “Short-time stability (1h, 56°C) Accuracy [%]” value is 45.3%; the “Short-time stability (24h, 4°C, without daylight) Accuracy [%]” value was found to be 93.5%; the “Short-time stability (24h, RT, with daylight) Accuracy [%]” value came to 91.7%; the “Short-time stability (24h, RT, without daylight) Accuracy [%]” value is given as 88.1%. Moreover, in series [2] (validation standard LLOV), the “Short-time stability (1h, 56°C) Accuracy [%]” value was 39.0%; the “Short-time stability (24h, 4°C, without daylight) Accuracy [%]” value stood at 90.3%; the “Short-time stability (24h, RT, with daylight) Accuracy [%]” value was found to be 89.5%; the “Short-time stability (24h, RT, without daylight) Accuracy [%]” value came out at 85.7%. For the same molecule, in series [2] (validation standard MOV), the “Short-time stability (1h, 56°C) Accuracy [%]” value was found to be 41.7%; the “Short-time stability (24h, 4°C, without daylight) Accuracy [%]” value is reported as 103.7%; the “Short-time stability (24h, RT, with daylight) Accuracy [%]” value was determined as 88.3%; the “Short-time stability (24h, RT, without daylight) Accuracy [%]” value came out at 91.0%. For the same molecule, in series [2] (validation standard ULOV), the “Short-time stability (1h, 56°C) Accuracy [%]” value is 37.7%; the “Short-time stability (24h, 4°C, without daylight) Accuracy [%]” value is on record as 98.8%; the “Short-time stability (24h, RT, with daylight) Accuracy [%]” value stood at 89.5%; the “Short-time stability (24h, RT, without daylight) Accuracy [%]” value was 88.4%.
Regarding `Cc1[nH]c2ccccc2c1CCNCc1ccc(/C=C/C(=O)NO)cc1` [Panobinostat], in series [2] (validation standard 2xLLOV), the “Short-time stability (1h, 56°C) Accuracy [%]” value amounted to 27.6%; the “Short-time stability (24h, 4°C, without daylight) Accuracy [%]” value is 81.5%; the “Short-time stability (24h, RT, with daylight) Accuracy [%]” value turned out to be 53.1%; the “Short-time stability (24h, RT, without daylight) Accuracy [%]” value is 45.4%. In series [2] (validation standard LLOV), the “Short-time stability (1h, 56°C) Accuracy [%]” value was 1.9%; the “Short-time stability (24h, 4°C, without daylight) Accuracy [%]” value came to 66.1%; the “Short-time stability (24h, RT, with daylight) Accuracy [%]” value was -0.2%; the “Short-time stability (24h, RT, without daylight) Accuracy [%]” value worked out at 52.8%. Further, in series [2] (validation standard MOV), the “Short-time stability (1h, 56°C) Accuracy [%]” value turned out to be 48.8%; the “Short-time stability (24h, 4°C, without daylight) Accuracy [%]” value was 93.6%; the “Short-time stability (24h, RT, with daylight) Accuracy [%]” value was 92.2%; the “Short-time stability (24h, RT, without daylight) Accuracy [%]” value was determined as 96.2%. For the same molecule, in series [2] (validation standard ULOV), the “Short-time stability (1h, 56°C) Accuracy [%]” value was 46.3%; the “Short-time stability (24h, 4°C, without daylight) Accuracy [%]” value came to 89.2%; the “Short-time stability (24h, RT, with daylight) Accuracy [%]” value is recorded as 96.0%; the “Short-time stability (24h, RT, without daylight) Accuracy [%]” value came out at 100.4%.

These data come from paper PMC8699473, “An Easily Expandable Multi-Drug LC-MS Assay for the Simultaneous Quantification of 57 Oral Antitumor Drugs in Human Plasma” (Cancers, 2021).
